Test results as given in PubChem BioAssay (NCI).
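Each compound was tested at five concentrations against cells in 96-well plates for 48 hours. GI50 = concentration required for 50% inhibition of growth. Definition used: TGI = concentration required for complete inhibition of growth.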

Assays:
Test in all cases: growth of human tumour cells (NCI), 48 h
[1] = system: 786-0 renal
[2] = system: A498 renal
[3] = system: A549 NSCLC
[4] = system: ACHN renal
[5] = system: BT-549 breast
[6] = system: CAKI-1 renal
[7] = system: CCRF-CEM leukemia
[8] = system: COLO 205 colon
[9] = system: DU-145 prostate
[10] = system: EKVX NSCLC
[11] = system: HCC-2998 colon
[12] = system: HCT-116 colon
[13] = system: HCT-15 colon
[14] = system: HL-60(TB) leukemia
[15] = system: HOP-62 NSCLC
[16] = system: HOP-92 NSCLC
[17] = system: HS 578T breast
[18] = system: HT29 colon
[19] = system: IGROV1 ovarian
[20] = system: K-562 leukemia
[21] = system: KM12 colon
[22] = system: LOX IMVI melanoma
[23] = system: M14 melanoma
[24] = system: MALME-3M melanoma
[25] = system: MCF7 breast
[26] = system: MDA-MB-231 breast
[27] = system: MDA-MB-435
[28] = system: MOLT-4 leukemia
[29] = system: NCI-H226 lung
[30] = system: NCI-H23 lung
[31] = system: NCI-H460 lung
[32] = system: NCI-H522 lung
[33] = system: NCI/ADR-RES ovarian
[34] = system: OVCAR-3 ovarian
[35] = system: OVCAR-4 ovarian
[36] = system: OVCAR-5 ovarian
[37] = system: OVCAR-8 ovarian
[38] = system: PC-3 prostate
[39] = system: RPMI-8226 leukemia
[40] = system: RXF 393 renal
[41] = system: SF-268 CNS
[42] = system: SF-295 CNS
[43] = system: SF-539 CNS
[44] = system: SK-MEL-2 melanoma
[45] = system: SK-MEL-28 melanoma
[46] = system: SK-MEL-5 melanoma
[47] = system: SK-OV-3 ovarian
[48] = system: SN12C renal
[49] = system: SNB-19 CNS
[50] = system: SNB-75 CNS
[51] = system: SR leukemia
[52] = system: SW-620 colon
[53] = system: T-47D breast
[54] = system: TK-10 renal
[55] = system: U251 CNS
[56] = system: UACC-257 melanoma
[57] = system: UACC-62 melanoma
[58] = system: UO-31 renal

Compound: c1ccc2nc3c(cc2c1)Sc1cc2ccccc2[n+]2c1N3CC2
- GI50 [1]: 43 µM
- TGI [1]: > 100 µM
- GI50 [2]: 34.1 µM
- TGI [2]: > 100 µM
- GI50 [3]: 11.9 µM
- TGI [3]: > 100 µM
- GI50 [4]: > 100 µM
- TGI [4]: > 100 µM
- GI50 [5]: 19.1 µM
- TGI [5]: > 100 µM
- GI50 [6]: 64.5 µM
- TGI [6]: > 100 µM
- GI50 [7]: 26.8 µM
- TGI [7]: > 100 µM
- GI50 [8]: 3.57 µM
- TGI [8]: 25.5 µM
- GI50 [9]: 53.9 µM
- TGI [9]: > 100 µM
- GI50 [10]: 21 µM
- TGI [10]: > 100 µM
- GI50 [11]: 18.5 µM
- TGI [11]: 64.3 µM
- GI50 [12]: 30.8 µM
- TGI [12]: > 100 µM
- GI50 [13]: > 100 µM
- TGI [13]: > 100 µM
- GI50 [14]: 32.5 µM
- TGI [14]: > 100 µM
- GI50 [15]: 20.8 µM
- TGI [15]: 78.1 µM
- GI50 [16]: 27.9 µM
- TGI [16]: > 100 µM
- GI50 [17]: 18.3 µM
- TGI [17]: 85.1 µM
- GI50 [18]: 33.8 µM
- TGI [18]: > 100 µM
- GI50 [19]: 22.8 µM
- TGI [19]: > 100 µM
- GI50 [20]: 14 µM
- TGI [20]: > 100 µM
- GI50 [21]: 11 µM
- TGI [21]: 40.3 µM
- GI50 [22]: 41.3 µM
- TGI [22]: > 100 µM
- GI50 [23]: 16.2 µM
- TGI [23]: 45 µM
- GI50 [24]: 4.17 µM
- TGI [24]: 23.3 µM
- GI50 [25]: 8.67 µM
- TGI [25]: > 100 µM
- GI50 [26]: 31.6 µM
- TGI [26]: > 100 µM
- GI50 [27]: 21.1 µM
- TGI [27]: 65.7 µM
- GI50 [28]: 22.1 µM
- TGI [28]: > 100 µM
- GI50 [29]: 45 µM
- TGI [29]: > 100 µM
- GI50 [30]: 21.9 µM
- TGI [30]: > 100 µM
- GI50 [31]: 20.3 µM
- TGI [31]: 63.9 µM
- GI50 [32]: 26.7 µM
- TGI [32]: > 100 µM
- GI50 [33]: > 100 µM
- TGI [33]: > 100 µM
- GI50 [34]: 21.2 µM
- TGI [34]: > 100 µM
- GI50 [35]: 24.7 µM
- TGI [35]: > 100 µM
- GI50 [36]: > 100 µM
- TGI [36]: > 100 µM
- GI50 [37]: 25.3 µM
- TGI [37]: > 100 µM
- GI50 [38]: 27.4 µM
- TGI [38]: > 100 µM
- GI50 [39]: 15.6 µM
- TGI [39]: > 100 µM
- GI50 [40]: 13.7 µM
- TGI [40]: 54.9 µM
- GI50 [41]: 23.6 µM
- TGI [41]: > 100 µM
- GI50 [42]: 65.7 µM
- TGI [42]: > 100 µM
- GI50 [43]: 35.9 µM
- TGI [43]: > 100 µM
- GI50 [44]: 17.6 µM
- TGI [44]: 43.9 µM
- GI50 [45]: 20.8 µM
- TGI [45]: 83.9 µM
- GI50 [46]: 3.66 µM
- TGI [46]: 20 µM
- GI50 [47]: > 100 µM
- TGI [47]: > 100 µM
- GI50 [48]: 21.5 µM
- TGI [48]: > 100 µM
- GI50 [49]: 19.7 µM
- TGI [49]: 91.9 µM
- GI50 [50]: 26.9 µM
- TGI [50]: > 100 µM
- GI50 [51]: 13.5 µM
- TGI [51]: > 100 µM
- GI50 [52]: 32.5 µM
- TGI [52]: > 100 µM
- GI50 [53]: 15 µM
- TGI [53]: 64.9 µM
- GI50 [54]: 36.4 µM
- TGI [54]: > 100 µM
- GI50 [55]: 24 µM
- TGI [55]: > 100 µM
- GI50 [56]: 11.6 µM
- TGI [56]: 34.8 µM
- GI50 [57]: 13.5 µM
- TGI [57]: 28.8 µM
- GI50 [58]: > 100 µM
- TGI [58]: > 100 µM

Compound: Cc1ccc(C(=Nc2ccccc2)N=P(c2ccccc2)(c2ccccc2)c2ccccc2)cc1
- GI50 [1]: 1.71 µM
- TGI [1]: 4.29 µM
- GI50 [2]: 1.72 µM
- TGI [2]: 5.32 µM
- GI50 [3]: 1.43 µM
- TGI [3]: 15 µM
- GI50 [4]: 1.34 µM
- GI50 [5]: 1.54 µM
- TGI [5]: 3.96 µM
- GI50 [6]: 1.82 µM
- GI50 [7]: 2.51 µM
- TGI [7]: 6.5 µM
- GI50 [8]: 0.833 µM
- TGI [8]: 2.32 µM
- GI50 [9]: 2.09 µM
- GI50 [10]: 1.44 µM
- GI50 [11]: 1.22 µM
- TGI [11]: 3.72 µM
- GI50 [12]: 0.986 µM
- TGI [12]: 3.92 µM
- GI50 [13]: 1.22 µM
- GI50 [14]: 0.235 µM
- TGI [14]: 0.593 µM
- GI50 [15]: 2.14 µM
- TGI [16]: 1.4 µM
- GI50 [17]: 1.48 µM
- TGI [17]: 7.84 µM
- GI50 [18]: 1.15 µM
- TGI [18]: > 36.8 µM
- GI50 [19]: 0.621 µM
- TGI [19]: 4.96 µM
- GI50 [20]: 4.22 µM
- TGI [20]: > 100 µM
- GI50 [21]: 1.07 µM
- TGI [21]: 4.71 µM
- GI50 [22]: 0.949 µM
- TGI [22]: 4.28 µM
- GI50 [23]: 1.81 µM
- TGI [23]: 8.77 µM
- GI50 [24]: 0.288 µM
- TGI [24]: 0.946 µM
- GI50 [25]: 1.43 µM
- TGI [25]: 4.85 µM
- GI50 [26]: 2.21 µM
- TGI [26]: 7.75 µM
- GI50 [27]: 0.955 µM
- TGI [27]: 3.23 µM
- GI50 [28]: 0.328 µM
- TGI [28]: 1.29 µM
- GI50 [29]: 1.57 µM
- TGI [29]: 9.38 µM
- GI50 [30]: 3.11 µM
- TGI [30]: 12.5 µM
- GI50 [31]: 1.22 µM
- TGI [31]: 4.23 µM
- GI50 [32]: 1.44 µM
- TGI [32]: 9.73 µM
- GI50 [33]: 3.61 µM
- GI50 [34]: 1.12 µM
- GI50 [35]: 1.53 µM
- TGI [35]: > 31 µM
- GI50 [36]: 2.98 µM
- GI50 [37]: 3.34 µM
- TGI [37]: > 100 µM
- GI50 [38]: 1.74 µM
- TGI [38]: 4.04 µM
- GI50 [39]: 1.18 µM
- TGI [39]: 2.86 µM
- GI50 [40]: 0.695 µM
- TGI [40]: 2.52 µM
- GI50 [41]: 1.79 µM
- GI50 [42]: 0.875 µM
- TGI [42]: 7.12 µM
- GI50 [43]: 2.18 µM
- TGI [43]: 8.68 µM
- GI50 [44]: 1.31 µM
- TGI [44]: 5.44 µM
- GI50 [45]: 1.63 µM
- TGI [45]: 10 µM
- GI50 [46]: 0.739 µM
- TGI [46]: 1.93 µM
- GI50 [47]: 1.98 µM
- TGI [47]: 5.22 µM
- GI50 [48]: 1.41 µM
- TGI [48]: 9 µM
- GI50 [49]: 2.12 µM
- GI50 [50]: 2.44 µM
- TGI [50]: 14.8 µM
- GI50 [51]: 1.67 µM
- TGI [51]: 14.9 µM
- GI50 [52]: 1.26 µM
- GI50 [53]: 1.24 µM
- GI50 [54]: 1.18 µM
- TGI [54]: 4.14 µM
- GI50 [55]: 1.15 µM
- GI50 [56]: 1.32 µM
- TGI [56]: 3.74 µM
- GI50 [57]: 1.19 µM
- TGI [57]: 5.07 µM
- GI50 [58]: 1.32 µM
- TGI [58]: 3.8 µM
